Data set [1] is described as follows: Saturation solubility of tacrolimus in different solvents. The conditions noted are these: for solubility: thermodynamic from solid, room temperature. It counts as physicochemical. Here is the method: Tacrolimus was dissolved in an organic solvent. Particularly, the saturation solubility of tacrolimus in different organic solvents was tested. Crystalline active ingredient was added to a defined amount of solvent at room temperature while stirring until an insoluble sediment was formed. After filtration, the concentration of active ingredient was quantified by HPLC in the supernatant.

For data set [2] the following is noted: low solubility and high permeability; cited from earlier work.

This is an account of results in US20240148645A1, “NON-NANOPARTICULATE APPLICATION FORMS OF MACROLIDES” (Nucleus Medical GmbH, priority 2021, published 2024).

One may read the solubility as how much of the substance goes into solution per volume.

Converted amounts (≈) assume the structure as drawn.

For `C=CC[C@@H]1/C=C(\C)C[C@H](C)C[C@H](OC)[C@H]2O[C@@](O)(C(=O)C(=O)N3CCCC[C@H]3C(=O)O[C@H](/C(C)=C/[C@@H]3CC[C@@H](O)[C@H](OC)C3)[C@H](C)[C@@H](O)CC1=O)[C@H](C)C[C@@H]2OC` [Tacrolimus], in data set [1], the “Solubility in tested organic solvents” value is recorded as “soluble in all tested organic solvents”. Besides, the solubility in data set [1] (organic solvent or mixture, Acetic Acid) stood at 545 mg/mL (≈ 678 mM); in data set [1] (organic solvent or mixture, DMSO), 582 mg/mL (≈ 724 mM); in data set [1] (organic solvent or mixture, Ethanol), 389 mg/mL (≈ 484 mM); in data set [1] (organic solvent or mixture, iso-Propanol) it was 243 mg/mL (≈ 302 mM); in data set [1] (Water) it was 0.00076 mg/mL (≈ 0.000945 mM). Moreover, in data set [2], the BCS class result is given as “BCS class II”.
